In PubChem BioAssay AID2060887 (Molecular Pharmacology Branch, DTP, NCI, 2025):

Test system: 782815-120-R-J1-PDC complex spheroid viability
Test: Anticancer human tumor 782815-120-R-J1-PDC patient-derived colon adenocarcinoma cell line growth inhibition [RAS]
Conditions: for IC50: curve of first compound; for viability, T/C: stronger effect = lower value; active means viability on the fitted dose curve at most 10% of control; inactive means the rest
Method in brief: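 Tumour cells grown as complex spheroids with HUVEC endothelial cells and mesenchymal stem cells, treated with RAS pathway inhibitor combinations. Each agent spans half-log steps from near clinical Cmax, or 10 microM where Cmax is unknown.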
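Further: spheroids exposed to compounds for 7 days before reading.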
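Wherever viability, T/C is given: 100% = DMSO vehicle control viability.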

NC1c2ccccc2OC12CCN(c1cnc3c(N4CCCc5ncccc54)n[nH]c3n1)CC2 (configuration not stated) + CCn1c(-c2cc(N3CCN(C)CC3)cnc2C(C)OC)c2c3cc(ccc31)-c1csc(n1)CC(NC(=O)C1CC1C)C(=O)N1CCCC(N1)C(=O)OCC(C)(C)C2
1660 nM: IC50 (second compound 0.003 µM)
inactive: viability, T/C (second compound 0.000949 µM, first compound 0.0316 µM) 74.5% | viability, T/C (second compound 0.000949 µM, first compound 0.1 µM) 74.1% | viability, T/C (second compound 0.000949 µM, first compound 0.316 µM) 73.3% | viability, T/C (second compound 0.000949 µM, first compound 1 µM) 67.9% | viability, T/C (second compound 0.000949 µM, first compound 3.16 µM) 78.7% | viability, T/C (second compound 0.000949 µM, first compound 10 µM) 67.8% | viability, T/C (second compound 0.003 µM, first compound 0.0316 µM) 50.3% | viability, T/C (second compound 0.003 µM, first compound 0.1 µM) 53.9% | viability, T/C (second compound 0.003 µM, first compound 0.316 µM) 56.5% | viability, T/C (second compound 0.003 µM, first compound 1 µM) 47.6% | viability, T/C (second compound 0.003 µM, first compound 3.16 µM) 49.1% | viability, T/C (second compound 0.003 µM, first compound 10 µM) 44% | viability, T/C (second compound 0.00949 µM, first compound 0.0316 µM) 26.1% | viability, T/C (second compound 0.00949 µM, first compound 0.1 µM) 33.1% | viability, T/C (second compound 0.00949 µM, first compound 0.316 µM) 23.6% | viability, T/C (second compound 0.00949 µM, first compound 1 µM) 23.7% | viability, T/C (second compound 0.00949 µM, first compound 3.16 µM) 24.4% | viability, T/C (second compound 0.00949 µM, first compound 10 µM) 21.2% | viability, T/C (second compound 0.03 µM, first compound 0.0316 µM) 15.9% | viability, T/C (second compound 0.03 µM, first compound 0.1 µM) 17.1% | viability, T/C (second compound 0.03 µM, first compound 0.316 µM) 18.2% | viability, T/C (second compound 0.03 µM, first compound 1 µM) 16.2% | viability, T/C (second compound 0.03 µM, first compound 3.16 µM) 18.7% | viability, T/C (second compound 0.03 µM, first compound 10 µM) 14.6% | viability, T/C (second compound 0.0949 µM, first compound 0.0316 µM) 16.4% | viability, T/C (second compound 0.0949 µM, first compound 0.1 µM) 17.4% | viability, T/C (second compound 0.0949 µM, first compound 0.316 µM) 18.8% | viability, T/C (second compound 0.0949 µM, first compound 1 µM) 20.6% | viability, T/C (second compound 0.0949 µM, first compound 3.16 µM) 18.8% | viability, T/C (second compound 0.0949 µM, first compound 10 µM) 13.6% | viability, T/C (second compound 0.3 µM, first compound 0.0316 µM) 16.4% | viability, T/C (second compound 0.3 µM, first compound 0.1 µM) 15.7% | viability, T/C (second compound 0.3 µM, first compound 0.316 µM) 17.6% | viability, T/C (second compound 0.3 µM, first compound 1 µM) 16.4% | viability, T/C (second compound 0.3 µM, first compound 3.16 µM) 19.1% | viability, T/C (second compound 0.3 µM, first compound 10 µM) 11.8%
> 10000 nM: IC50 (second compound 0.000949 µM)
< 31.6 nM: IC50 (second compound 0.00949 µM) | IC50 (second compound 0.03 µM) | IC50 (second compound 0.0949 µM) | IC50 (second compound 0.3 µM)
